Reference: patent publication US6894075B2, “4′-demethyl-4′-O-substituted-1-deoxypodophyllotoxin derivative and geometric isomer thereof, process for the preparation thereof and anti-cancer composition comprising the same” (priority 2000, dated 2005)
“And” between values parts separate entries of the source, which are not always exact repeats. Equal entries are not always repeated.

What was measured:
[1] = system: Lewis Lung Cancer Cell (LLC); test: Anti-cancer test for BDF1 mouse transplanted by Lewis Lung Cancer Cell, Experiment 2-1 (formulae 1a, 1b); type: in vivo; conditions: peritoneal injection 0.06 mmole/kg/day at days 1, 2, 4, 7, 8 (etoposide 36 mg/kg), cancer volume at 14 to 16 days
From the text: In order to evaluate the anti-cancer activity of the compounds of the present invention, LLC, which is a lung cancer cell of mouse, was transplanted into the hypodermic region of BDF1 mouse to induce a solid cancer. […] Experiment for the compounds of formulae (1a) and (1b) and that for the compound of formula (1c) were separately carried out.
Male BDF1 mouse (Weight 18 to 25 g), being in good health and purchased from Korea Biolink Co., was used as a test animal.
The mice were bred at a place controlled to the temperature of 23 to 24° C. while provided with water and feed ad libitum. As the feed, feed for mouse containing no antibiotics was used. The hypodermic tissue of C57BL/6 mouse, which includes cells cultured therein for 14 days, was taken up. Sterilized cold physiological saline was added to the tissue in the amount of 5 ml/g tissue to make a cell suspension. This cell suspension of 0.2 ml was transplanted into the hypodermic region of armpit of BDF1 mouse.
(§1) Each group includes 5 mice. After 24 hours from the transplantation, each test compound of formulae (1a) and (1b) was dissolved in 4% Tween 80 and injected peritoneally in the amount of 0.2 ml and in a concentration of 0.06 mmole/kg/day (that is, 0.06 mmole of each test compound was dissolved in 10 ml of 4% Tween 80, and then 0.2 ml of the resulting solution was peritoneally injected into a mouse). Only 4% Tween 80 was injected for the negative control group, and the same moles of etoposide (36 mg/kg) was injected for the positive control group. The injection was performed five times at 1, 2, 4, 7 and 8 days from the transplantation of cancer.
The anti-cancer effect was determined by measuring the volume of cancer of the control and test groups at 14 to 16 days from the administration of drugs and then calculated as follows. Volume of Cancer(mm^3)=Length(mm)×Width^2(mm^2)/2 Suppression Rate of Cancer Growth(%)=(C−T)×100(%)/C in which • C represents the average volume of cancer (mm^3) of the control group, and • T represents the average volume of cancer (mm^3) of the test group.

A549 cell = test: Cytotoxicity test (SRB method) for A549 cells; type: cell-based, human; conditions: for EC50: A549 human lung cancer cell, SRB, read-out: ED50(nM) for A549; for EC50 / ED50(mg/mL) for A549: 48 hours incubation; for ED50(mg/mL) for A549: A549, SRB, Table 2
From the text: (§2) Human lung carcinomas A549 and […] were used for determining cytotoxicity of the compounds of the present invention according to the Sulfrhodamine-B (SRB) method which was developed by NCI in 1989 in order to determine in vitro anticancer activity of drugs.
(§3) Cells to be used in the experiment were separated from a surface using 0.5% Trypsin-EDTA solution and suspended in a density of 5×10^4 cell/ml therein. The cell suspension was introduced into a 96-well plate in an amount of 180/well and incubated for 24 hours in a 5% CO2 incubator of 37° C. Samples were dissolved in dimethylsulfoxide and then diluted by water distilled in advance for three times just before the experiment. Forty-one (41) samples were prepared into 4 types of final concentrations, i.e., 0.1, 0.03, 0.01 and 0.003 mg per ml of the medium. The diluted sample solutions were added to the 96-well plate in the amount of 20 μl/well and incubated for 48 hours in a CO2 incubator of 37° C. At the time of adding the samples, Tz (Time zero) plate was taken. The medium was removed from the Tz plate and each of the plates after incubation were completed. Ten (10)% […] (TCA) was added in the amount of […], and allowed to stand for 1 hour at 4° C. to fix the cells on the bottom surface of the plate. After the cells were fixed, the plate was washed five to six times with water to completely remove the remaining TCA solution and then dried at room temperature to completely remove the moisture. To the fully dried plate was introduced a dye solution in the amount of […] in which 0.4% SRB was dissolved in 1% acetic acid solution. […] After the dyeing process, the plate was dried again at room temperature. 100 ml of 10 mM Tris solution was added thereto in order to dissolve the dye, and then O.D. (optical density) was determined by microplate reader at 520 nm.
(§4) ED50 values for cancer cells were calculated as follows. The amount of SRB protein was analyzed at the time when incubation started by the addition of the sample. This amount was named time zero (Tz). The O.D. value obtained from a group which was not treated by the sample was named Control group (C) and the O.D. value obtained from a group which was treated by the sample was named Test group (T).
(§5) The degree of cytotoxicity of the compounds was calculated from Tz, C and T values according to the following equation.
(§6) That is, in the case of Tz≧T, the degree was calculated by
(§7) (T−Tz)/(C−Tz)×100(%), and
(§8) • in the case of Tz<T, the degree was calculated by […].
(§9) From the values thus obtained, ED50 value which is defined as the concentration at which growth of the cancer cell is inhibited by 50% was calculated using the regression function of Excel program.

[2] = Weight change in the period of drug administration; type: in vivo, mouse; conditions: for Weight of mouse, Day 1: Day 1 from the cancer cell transplantation; for Weight of mouse, Day 2: Day 2 from the cancer cell transplantation; for Weight of mouse, Day 3: Day 3 from the cancer cell transplantation; for Weight of mouse, Day 4: Day 4 from the cancer cell transplantation; for Weight of mouse, Day 5: Day 5 from the cancer cell transplantation; for Weight of mouse, Day 6: Day 6 from the cancer cell transplantation; for Weight of mouse, Day 7: Day 7 from the cancer cell transplantation; for Weight of mouse, Day 8: Day 8 from the cancer cell transplantation
Procedure: as §1
As an index of toxicity, the weight change during the period of drug administration was recorded for the compounds of formulae (1a) and (1b) compared with the comparison compound of Etoposide.

SK-MEL-2 cell = test: Cytotoxicity test (SRB method) for SK-MEL-2 cells; type: cell-based, human; conditions: SK-MEL-2, SRB, 48 hours incubation
From the text: as §2, §3, §4, §5, §6, §7, §8, §9

| SMILES | Suppression Rate for LLC [1] | EC50 (A549 cell) [nM] | Weight of mouse, Day 1 [2] [g] | Weight of mouse, Day 2 [2] [g] | Weight of mouse, Day 3 [2] [g] | Weight of mouse, Day 4 [2] [g] | Weight of mouse, Day 5 [2] [g] | Weight of mouse, Day 6 [2] [g] | Weight of mouse, Day 7 [2] [g] | Weight of mouse, Day 8 [2] [g] | cytotoxicity compared with DPT (A549 cell; A549, in words) | weight loss ([2]; compared with the control group, 8 days) | ED50(mg/mL) for A549 (A549 cell) [mg/mL] | ED50(mg/mL) for SK-MEL-2 (SK-MEL-2 cell) [mg/mL] |
| --- | --- | --- | --- | --- | --- | --- | --- | --- | --- | --- | --- | --- | --- | --- |
| COc1cc(C2c3cc4c(cc3CC3COC(=O)C32)OCO4)cc(OC)c1OC(=O)NC(C)C (stereo not drawn) [Compound 1b-2, 4′-demethyl-4′-O-isopropylcarbamoyl-1-deoxypodophyllotoxin] | 90% and 90.1% | 153 | 22.8 | 23.6 | 23.2 | 25 | 25 | 26.1 | 26 | 26 |  |  |  |  |
| COc1cc(C2c3cc4c(cc3CC3COC(=O)C32)OCO4)cc(OC)c1OC(=O)NCCO (stereo not drawn) [Compound 1b-5, 4′-demethyl-4′-O-(2-hydroxyethyl)carbamoyl-1-deoxypodophyllotoxin] | 95.1% | 61.5 | 23.4 | 23.8 | 22.2 | 23.8 | 23.4 | 23.8 | 23 | 23.2 | stronger cytotoxicity than DPT |  |  |  |
| COc1cc(C2c3cc4c(cc3CC3COC(=O)C32)OCO4)cc(OC)c1OC(=O)CCCCCN (stereo not drawn) [Compound 1a-13, 4′-demethyl-4′-O-(6-aminohexanoyl)-1-deoxypodophyllotoxin] | 85% and 85.5% | 88.5 | 23 | 24.2 | 25 | 25.2 | 25 | 25.5 | 26 | 26.2 |  |  |  |  |
| COc1cc(C2c3cc4c(cc3CC3COC(=O)C32)OCO4)cc(OC)c1OC(=O)CCCCCCN (stereo not drawn) [Compound 1a-14, 4′-demethyl-4′-O-(7-aminoheptanoyl)-1-deoxypodophyllotoxin] | 90% | 79.6 | 23 | 23.8 | 21.6 | 26 | 22.3 | 22.8 | 22.8 | 22.5 |  | about 0.5 g/mouse |  |  |
| COc1cc(C2c3cc4c(cc3CC3COC(=O)C32)OCO4)cc(OC)c1OC(=O)NC1CCCCC1 (stereo not drawn) [Compound 1b-4, 4′-demethyl-4′-O-cyclohexylcarbamoyl-1-deoxypodophyllotoxin] | 88% | 163 | 23 | 23.9 | 25 | 26 | 25 | 26 | 26 | 25.5 |  |  |  |  |
| COc1cc(C2c3cc4c(cc3CC3COC(=O)C32)OCO4)cc(OC)c1OC(=O)CCCCCCCN (stereo not drawn) [Compound 1a-15, 4′-demethyl-4′-O-(8-aminooctanoyl)-1-deoxypodophyllotoxin] | 34.5% | 74.2 |  |  |  |  |  |  |  |  |  |  |  |  |
| COc1cc(C2c3cc4c(cc3CC3COC(=O)C32)OCO4)cc(OC)c1OC(=O)NCCCl (stereo not drawn) [Compound 1b-3, 4′-demethyl-4′-O-(2-chloroethylcarbamoyl)-1-deoxypodophyllotoxin] | 75% | 92 | 23.3 | 23 | 23.6 | 24.5 | 26 | 25 | 26 | 25.8 |  |  |  |  |
| COc1cc([C@@H]2c3cc4c(cc3[C@@H](O[C@@H]3O[C@@H]5CO[C@@H](C)O[C@H]5[C@H](O)[C@H]3O)[C@H]3COC(=O)[C@H]23)OCO4)cc(OC)c1O [Etoposide, reference compound] | 90% and 90.8% | 1990 | 23 | 24 | 25.1 | 26 | 25.9 | 26.3 | 25.6 | 26.6 |  |  | 1.102 |  |
| CCCCC/C=C\C/C=C\CCCCCCCC(=O)Oc1c(OC)cc(C2c3cc4c(cc3CC3COC(=O)C32)OCO4)cc1OC (stereo not drawn) [Compound 1c-20, 4′-demethyl-4′-O-(cis-9′,12′-octadecadienoyl)-1-deoxypodophyllo-toxin] |  |  |  |  |  |  |  |  |  |  |  |  | 0.090 | 0.030 |
| CCCCCC/C=C\CCCCCCCCCC(=O)Oc1c(OC)cc(C2c3cc4c(cc3CC3COC(=O)C32)OCO4)cc1OC (stereo not drawn) [Compound 1c-18, 4′-demethyl-4′-O-(cis-11′-octadecenoyl)-1-deoxypodophyllo-toxin] |  |  |  |  |  |  |  |  |  |  |  |  | 0.335 | 0.057 |
| COc1cc(C2c3cc4c(cc3CC3COC(=O)C32)OCO4)cc(OC)c1OC(C)=O (stereo not drawn) [Compound 1c-3, 4′-demethyl-4′-O-acetyl-1-deoxypodophyllotoxin] |  |  |  |  |  |  |  |  |  |  |  |  | 0.003 | 0.006 |
